In a melting point compilation (Tetko et al.; mined from patent text by program, amines drawn as free bases though some values may be those of a salt):

melting point | Structure (SMILES)
180 °C | Cc1cccc(NC(=O)NCC(=O)N(CC(=O)OC(C)(C)C)c2ccccc2)c1
171 to 173 °C | O=C1NCc2c(Oc3ccccc3)cccc2N1Cc1ccccc1
165 to 167 °C | CC(C)(C)OC(=O)n1c(C#N)ccc1-c1ccc2c(c1)C(C)(C)OC(=O)N2
55 to 56 °C | CC(C)(C)[Si](C)(C)O[C@@H]1C=CO[C@H](CO)[C@H]1O
67.2 to 69.8 °C | CCc1cc2c(cc1Cl)=CCc1cccnc1C=2C1CCN(C(=O)Cc2cccnc2)CC1
145 to 147 °C | CC(C)(C)OC(=O)Nc1sc(-c2cccnc2)nc1C(F)(F)F
128 °C | OC(CN1CCNC1=S)c1cccc(Cl)c1 (configuration not stated)
251 °C | O=C(c1cc(C(F)(F)F)cc(C(F)(F)F)c1)N1CCC2(CC1)C(=O)NCN2c1ccccc1
274 to 280 °C | CC(C)(C)OC(=O)Nc1ccc(Nc2ncnc3[nH]cc(C(=O)c4ccccc4)c23)cc1
98 to 98.5 °C | CSc1nc2ccccc2n1C1CCN(CCCC(=O)c2ccc(F)cc2)CC1
159 to 160 °C | CCc1ccc(Sc2nn(-c3ccc(OC)cc3)c(=O)c(C#N)c2C)cc1
153 to 155 °C | CCCc1c(SCCCOc2ccc3c(=O)cc(CCC(=O)O)oc3c2CCC)ccc(C(C)=O)c1N
150 to 152 °C | CCOC(=O)c1csc(-c2ccc3nc(CC(C)C)c(CN)c(-c4ccc(C)cc4)c3c2)n1
247 to 248 °C | COc1cccc2oc(=O)c3c4c(ccc3c12)NC(C)(C)C=C4C
150 to 152 °C | O=C1CCCCN1S(=O)(=O)c1ccc(N2CCCCCCC2)cc1
101 °C | N#Cc1cccc(C=Nc2ccc(F)cc2)c1
75.3 to 80.3 °C | O=C(CCCC(=O)C(F)(F)F)c1cccc(OCc2ccccc2)c1
214 to 215 °C | O=C(Nc1c(C(O)(C(F)(F)F)C(F)(F)F)ccc2ccccc12)c1cccnc1
105 to 106 °C | CCOC(=O)CC[C@H](NC(=O)c1ccc(I)cc1)C(=O)OCC
> 230 °C | CCCCCCC(CCCCCC)N1C(=O)c2ccc3c4cccc5c(NC(C)=O)ccc(c6ccc(c2c36)C1=O)c54
71 to 72 °C | CC(C)C(C#N)c1ccc([N+](=O)[O-])cc1 (configuration not stated)
131 to 133 °C | O=C(c1c2n(c3ccccc13)CCNCC2)C(F)(F)F
126 to 127 °C | OC[C@@H]1CNCc2cc3ccc(C(F)(F)F)cc3n21
227 to 230 °C | c1cnc2ccc(Cn3nnc4ccc(-n5ccnc5)nc43)cc2c1

melting point | Structure (SMILES)
148 to 150 °C | COc1ccccc1COc1ccc(S(=O)(=O)c2ccc(C)nc2Nc2c(C)cc(C)cc2C)cc1
169 to 170 °C | O=C(O)CCCCN(C(=O)c1ccc(Cl)cc1)c1cccc2ccccc12
121 °C | Cc1cc(OCc2ncc([N+](=O)[O-])n2C)ccc1S(C)=O (configuration not stated)
70 to 71 °C | O=C(O)c1ccc(CCCOCCCCCCBr)cc1
201 °C | CCc1ccc(Cn2cc(-c3cn(C4CC(O)C(CO)O4)c(=O)[nH]c3=O)nn2)cc1 (configuration not stated)
213 to 217 °C | CC1=NC2(O)c3cc(-c4ccc(C(F)(F)F)cc4)ccc3CC2S1 (configuration not stated)
292 to 295 °C | O=c1[nH]c(=O)n2c3c1cnn3C(c1cccnc1)=CC2
62 to 66 °C | COc1ccccc1COc1ccc(S(=O)(=O)c2ccc(C)nc2Nc2cc(OC)c(OC)cc2C)cc1
197 to 200 °C | CCOC(=O)c1[nH]ccc1N
127 to 132 °C | CC(=O)Oc1c(C)c(C)c2c(c1C)CCC(C)(O)O2 (configuration not stated)
40 to 47 °C | CCCCCCCCC1SC(=S)SC1CCCCCCCCO (configuration not stated)
111 to 112 °C | CCOP(=O)(OCC)C1(P(=O)(OCC)OCC)CC(C(=O)c2ccccc2[N+](=O)[O-])=NN1
168 to 171 °C | COC(=O)c1cn(CC(F)(F)F)c2c(C)cc(F)cc2c1=O
95 to 97 °C | CCCCCCS(=O)(=O)c1ccc(N)cc1
> 250 °C | Cn1ncc(C(=O)O)c1C(=O)Nc1ccn2nc(N3CCCC3)nc2c1
161 to 162 °C | O=C(CCCc1ccccc1)N[C@H](Cc1ccccc1C(F)(F)F)[C@@H](O)c1ccc(F)cc1 (racemic)
116 °C | COC(=O)COc1ccc(C(=O)CNC=O)cc1
> 250 °C | O=C(O)C1=CSC2C(=Cc3cn4c(n3)CCCCC4)C(=O)N12 (configuration not stated)
190 to 191 °C | CCCc1nc2ncnn2c(N)c1CCc1ccccc1
192 to 193 °C | COc1ccc(C(=O)/C(Cc2cc(OC)c(OC)c(OC)c2)=C(/C(=O)O)c2ccc3c(c2)OCO3)cc1
201 to 202 °C | N#CCc1c[nH]c2cccnc12
246 to 247 °C | Cc1ccnc(-c2nc(=O)c3ccc(Cl)cc3s2)c1
156 to 158 °C | CN1CCN(C2Cc3ccc(Cl)cc3Sc3cc(F)ccc32)CC1 (configuration not stated)
155 to 158 °C | CCOC(=O)c1cnc(N)s1

melting point | Structure (SMILES)
163 to 164 °C | COC(=O)C=Cc1cn(Cc2ccc(C(=O)OC(C)(C)C)cc2OC)c2cc(C(=O)NCC3CCCC3)ccc12
222 to 225 °C | COc1cc(C=O)cc(OC)c1OC1OC(COC(C)=O)C(OC(C)=O)C(OC(C)=O)C1NC(C)=O (configuration not stated)
261 °C | O=c1ccc2cc(I)ccc2[nH]1
75 to 77 °C | COc1cccc2c3c(c(=O)[nH]c12)CCN3c1ccccc1
211 to 214 °C | COc1ccc(-c2csc(Nc3ccccn3)n2)cc1OC
176 to 178 °C | CC(C)(C)OC(=O)/C=C/c1cccc(-c2nc(=O)c3ccccc3s2)n1
121 °C | CCOC(=O)Nc1cc(C(=O)N(C)OC)c(Cl)cc1F
> 250 °C | CC(C)c1nc(O)c(Br)c(O)n1
180 to 190 °C | c1cc2c3c(c1)C[C@@H]1CCC[C@@H]1N3CCNC2 (relative stereo)
107 to 110 °C | CN(c1ccc(Cl)cc1)c1ncccc1[N+](=O)[O-]
105 to 106 °C | CCOC(=O)c1cc(Cl)c(N)c2c1OCCO2
239 to 241 °C | O=C(Nc1ccc2cc(CN3CCCC3)cnc2c1)N1CCC(c2ccc(F)cc2)CC1
103 °C | CCN(Cc1cccc(-c2ccc(CC3SC(=O)NC3=O)cc2)c1)C(=O)OC(C)(C)C (configuration not stated)
305 to 306 °C | O=C1CCCN1CCCn1c(=O)[nH]c2ncc(-c3ccc(O)cc3)nc21
56 °C | CCn1ncc2c(Cl)c(CO)cnc21
189 °C | COc1cc(N)c(Cl)cc1C(=O)N[C@H]1CCN(Cc2cccnc2)C[C@H]1OC (relative stereo)
65 to 67 °C | OCc1cc(F)c(Cl)nc1Cl
190 to 192 °C | CNS(=O)(=O)c1sc2ccccc2c1CC(=O)O
255 °C | CCOc1ccc2c(c1)n(C1CCOCC1)c(=O)n2S(=O)(=O)c1ccc(C(=O)O)cc1OC
54 to 58.5 °C | CCCC(=O)C(=C1NCCCS1)[N+](=O)[O-]
186 to 190 °C | Cn1cc(-c2ccccc2)c(=O)c(-c2ccc(-c3ccccc3)cc2)c1
106 to 112 °C | C[C@@H](n1cnc2cc(N3CCN(C)CC3)c(F)cc2c1=O)[C@](O)(Cn1cncn1)c1ccc(F)cc1F
131 to 133 °C | CC(C)(C)n1nnc(C(C=O)=C(c2ccc(F)cc2)c2ccc(F)cc2)n1
123 to 125 °C | CCCc1c(OCC(O)COc2cccc(N)c2C#N)ccc(C(C)=O)c1O (configuration not stated)

melting point | Structure (SMILES)
55 to 57 °C | CSC(SC)=C(C#N)C(=O)N1CCOCC1
75 to 76 °C | COC(=O)C(=O)c1ccc(OCCOCCOc2ccccc2)cc1
134 to 136 °C | CCOC(OCC)c1nc(-c2ccc(Cl)cc2)c(F)c(N=C2C=CC(=O)C=C2)c1Cl
76 to 78 °C | CCCCn1c(=O)c2c(nc(C)n2S(=O)(=O)CCCCl)n(CCCC)c1=O
58 to 61 °C | Nc1ccccc1C(=O)CCCO
138 to 139 °C | Cc1cnc(CSc2cc3ccccc3[nH]2)cc1N1CCCCC1
160 to 161 °C | O=C(OC(c1ccccc1)c1ccccc1)C1=CSC2C(=Cc3cn4c(n3)SCC4)C(=O)N12 (configuration not stated)
94 to 95 °C | O=C(CCC(CSc1ccc2ccccc2c1)C(=O)O)OCc1ccccc1 (configuration not stated)
192 to 193 °C | CCCCOC(=O)c1cccc2nc(CCCC)n(Cc3ccc(-c4ccccc4-c4nnn[nH]4)cc3)c12
54 °C | CCCCNC(=O)n1sc(OCC)nc1=O
> 200 °C | Cc1cc(=O)[nH]n(Cc2ccccc2)c1=O
137 °C | CC(C)S(=O)(=O)c1ccc2c(c1)nc(CC1CCCC1)n2CC1CC1
198 °C | CCn1cc(C(=O)O)c(=O)c2cc(F)c(N3CCNC(c4ccco4)C3)cc21 (configuration not stated)
165 to 167 °C | c1ccc(COc2cccc3nc[nH]c23)cc1
171 to 172 °C | COC(=O)c1[nH]c2ccccc2c1Oc1ccc(Cl)cc1[N+](=O)[O-]
356 to 358 °C | CC(C)(C)NC(=O)Nc1nc2nc(N)ncc2cc1-c1cccc(Cl)c1Cl
123 to 124 °C | COP(=O)(OC)OCN1C(=O)NC(c2ccccc2)(c2ccccc2)C1=O
112 to 114 °C | C/C(=C\COC(=O)c1ccccc1)CCc1c(C)c(O)c(C)c(C)c1O
62 °C | O=c1[nH]c2ccc(Cl)cc2n1CC1CCCCC1
30 °C | CCCCCCCCC/C=C1\SC(=O)N(CC(=O)OC)C1=O
194 to 196 °C | Cc1cc2c(cc1Cl)N(C(=O)CN1CCN(c3ccccc3)CC1)c1ccccc1N(C)S2(=O)=O
306 to 307 °C | CC(C)(C)c1ccc(C(=O)Nc2cn3nc(-n4cnc(Br)c4)ccc3n2)cc1
138 to 139 °C | CCOC(=O)c1cc2cc(/C=C/C(=O)c3cc(OC)c(OC)c(OC)c3)cc(C(C)CC)c2oc1=O (configuration not stated)
74 to 77 °C | CC(C)(CCc1ccccc1)NCC(O)CO (configuration not stated)

Structure (SMILES) | melting point
CCNC1CC=C(c2c[nH]c3ccc([N+](=O)[O-])cc23)CC1 (configuration not stated) | 177 to 179 °C
CC(C)(C)CC(=O)Nc1cc(-c2ccnc3c(C(=O)c4cccs4)cnn23)ccc1F | 180 to 181 °C
CCC(=O)c1c(CC)n(Cc2ccccc2Cl)c2cc(C#N)ccc12 | 115 to 118 °C
Cc1nnc2n1-c1ccc(Cl)cc1C(N1CCCC1)=NC2 | 222 to 225 °C
O=c1[nH]nc2n1-c1ccc(Cl)cc1C(c1ccccc1Cl)=CC2 | 250 to 251 °C
CCCCC(C(C)C)C(CN)CC(=O)O (configuration not stated) | 160 to 170 °C
